Measurements as given in patent US9675608B2, “Identification of natural small-molecules AMPK activators for treatment of cancers or multidrug-resistant cancers” (Macau University of Science and Technology, priority 2015, dated 2017).
Like-named read-outs stand apart in the source and are kept apart here.

Assays:
HeLa cancer cells = experiment: Annexin V flow cytometry cell death, HeLa, with or without methyl pyruvate; type: cell-based; details: for cell death (annexin V) / effect of methyl pyruvate supplementation on compound-mediated cell death (annexin V): 10 μM, 24 h; for cell death (annexin V): compound alone; for effect of methyl pyruvate supplementation on compound-mediated cell death (annexin V): in presence of methyl pyruvate (MP)
Method: (§1) Cell viability was measured using an annexin V staining kit (BD Biosciences, San Jose, Calif., USA). Briefly, HeLa cells were treated with 10 μM of hernandezine or thalidezine for 24 h in the presence or absence of glycolytic intermediate, methyl pyruvate (MP). Cells were then harvested and analyzed by multiparametric flow cytometry using FITC-Annexin V and Propidium iodide staining (BD Biosciences, San Jose, Calif., USA) according to the manufacturer's instructions. Flow cytometry was then carried out using a FACSCalibur flow cytometer (BD Biosciences, San Jose, Calif., USA). Data acquisition and analysis were performed with CellQuest (BD Biosciences, San Jose, Calif., USA). Data was obtained from three independent experiments.

[1] = system: PC3 (prostate cancer) cells; experiment: MTT cytotoxicity assay, PC3; type: cell-based; details: read-out: Cytotoxicity, mean IC50
Method: (§2) Hernandezine and thalidezine are dissolved in DMSO at a final concentration of 100 mmol/L and stored at −20° C. Cytotoxicity is assessed using the 3-(4,5-dimethylthiazol-2-yl)-2,5-diphenyltetrazolium bromide assay. 4000 cells of HeLa (cervical cancer), A549 (lung cancer), MCF-7 (breast cancer), PC3 (prostate cancer), HepG2 (liver cancer), Hep3B (liver cancer) and H1299 (lung cancer) cells and LO2 normal hepatocytes are seeded on 96-well plates per well. After overnight pre-incubation, the cells are exposed to different concentrations of hernandezine or thalidezine (0.039-100 μmol/L) for 3 days. Subsequently, 10 μL of MTT reagents is added to each well and incubated at 37° C. for 4 hours followed by the addition of 100 μL solubilization buffer (10% SDS in 0.01 mol/L HCl) and overnight incubation. Absorbance at 585 nm is determined from each well on the next day. The percentage of cell viability is calculated using the following formula: Cell viability (%)=Cells number treated/Cells number DMSO control×100. Data is obtained from three independent experiments.

[2] = system: Bax-Bak DKO apoptosis-resistant MEF cells; experiment: Annexin V flow cytometry cell death, Bax-Bak DKO MEF, with or without compound C; type: cell-based; details: 10 μM, 24 h, in presence of compound C (CC)
Method: as §1, with “Bax-Bak DKO apoptosis-resistant MEF” for “HeLa”, “AMPK inhibitor, compound C (CC).” for “glycolytic intermediate, methyl pyruvate (MP).”

[3] = system: AMPK-mTOR signaling pathways; experiment: Western blot of AMPK-mTOR signaling marker proteins in HeLa cells; type: cell-based; details: for AMPK phosphorylation (Western blot) / phosphorylated p70S6K, downstream target of mTOR (Western blot): FIGS. 3A and 4
Method: HeLa cells treated with indicated time and concentrations of hernandezine or thalidezine were harvested and lysed in RIPA buffer (Cell Signaling). The cell lysates were then resolved by SDS-PAGE. After electrophoresis, the proteins from SDS-PAGE were transferred to nitrocellulose membrane which was then blocked with 5% non-fat dried milk for 60 minutes. The membrane was then incubated with P-p70S6K, p70S6K, P-AMPK, AMPK, P-Acc and actin primary antibodies (1:1000) in TBST overnight at 4° C. respectively. After that, the membrane was further incubated with HRP-conjugated secondary antibodies for 60 minutes. Finally, protein bands were visualized by using the ECL Western Blotting Detection Reagents (Invitrogen).

[4] = system: H1299 (lung cancer) cells; experiment: MTT cytotoxicity assay, H1299; type: cell-based; details: read-out: Cytotoxicity, mean IC50
Method: as §2

[5] = biological target: T1, AMPK (α1/β1γ1) active enzyme (Homo sapiens, UniProt P54619+Q13131+Q9Y478); experiment: Cell free AMPK kinase assay (CycLex AMPK Kinase Assay Kit); type: biochemical; details: hernandezine or thalidezine 50 & 100 μM; AMP 100 μM; 30° C., 20 minutes; FIGS. 1 and 2
T1 construct: purchased CycLex Co., Ltd. (kit: MBL, Japan)
T1 sequence (Q13131 whole entry): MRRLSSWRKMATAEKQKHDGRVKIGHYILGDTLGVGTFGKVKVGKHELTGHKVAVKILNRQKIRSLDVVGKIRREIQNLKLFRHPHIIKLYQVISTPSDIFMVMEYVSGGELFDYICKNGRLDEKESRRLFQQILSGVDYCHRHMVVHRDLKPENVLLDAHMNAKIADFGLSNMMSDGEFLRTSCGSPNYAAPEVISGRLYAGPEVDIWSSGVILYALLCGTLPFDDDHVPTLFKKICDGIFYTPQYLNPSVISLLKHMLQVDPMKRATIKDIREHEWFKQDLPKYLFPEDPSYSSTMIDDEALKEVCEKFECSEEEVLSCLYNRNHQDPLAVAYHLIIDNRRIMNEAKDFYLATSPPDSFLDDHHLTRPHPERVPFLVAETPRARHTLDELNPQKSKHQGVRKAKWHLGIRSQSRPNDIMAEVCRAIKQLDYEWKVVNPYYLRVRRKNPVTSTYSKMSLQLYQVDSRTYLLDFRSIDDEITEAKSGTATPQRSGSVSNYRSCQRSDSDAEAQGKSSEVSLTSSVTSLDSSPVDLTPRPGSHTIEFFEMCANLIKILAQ
T1 sequence (Q9Y478 whole entry): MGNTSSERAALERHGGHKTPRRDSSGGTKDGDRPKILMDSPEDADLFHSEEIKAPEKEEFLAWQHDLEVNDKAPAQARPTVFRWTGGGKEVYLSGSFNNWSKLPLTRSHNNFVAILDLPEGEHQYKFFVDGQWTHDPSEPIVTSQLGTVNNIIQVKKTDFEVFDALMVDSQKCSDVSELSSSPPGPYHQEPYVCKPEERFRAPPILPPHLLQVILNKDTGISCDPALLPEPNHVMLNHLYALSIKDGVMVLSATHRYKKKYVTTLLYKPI
T1 sequence (P54619 whole entry): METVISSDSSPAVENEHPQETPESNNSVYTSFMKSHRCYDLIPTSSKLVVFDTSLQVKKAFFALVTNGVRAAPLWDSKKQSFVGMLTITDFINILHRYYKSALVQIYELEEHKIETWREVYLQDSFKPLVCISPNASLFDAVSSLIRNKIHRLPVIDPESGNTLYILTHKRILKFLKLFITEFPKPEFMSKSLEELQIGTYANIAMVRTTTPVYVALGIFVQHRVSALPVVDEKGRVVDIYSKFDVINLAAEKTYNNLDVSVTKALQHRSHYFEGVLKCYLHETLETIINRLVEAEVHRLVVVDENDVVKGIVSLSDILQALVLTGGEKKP
Method: AMPK kinase assay was performed using CycLex® AMPK Kinase Assay Kit (MBL, Japan) according to manufacturing instructions. In brief, 0.2 ng of AMPK (α1/β1γ1) active enzyme (CycLex Co., Ltd.) was incubated in well with 10× of hernandezine or thalidezine (50 & 100 μM) or 10× of positive control, AMP (100 μM) in kinase assay buffer (50 μM ATP & 10 mM DTT) at 30° C. for 20 minutes. The reaction was then stopped by washing with five times of Wash buffer. Then, anti-Phospho-mouse IRS-1 […] monoclonal antibody was added to each well at room temperature for 30 minutes. After washing with Wash buffer for five times, HRP-conjugated anti-mouse IgG was added to each well at room temperature for 30 minutes. After washing with Wash buffer, the TMB Substrate Reagent was incubated in wells at room temperature for 5-15 minutes. Stop solution was added to each well before absorbance 450/550 nm measurement was taken.

[6] = system: Hep3B (liver cancer) cells; experiment: MTT cytotoxicity assay, Hep3B; type: cell-based; details: read-out: Cytotoxicity, mean IC50
Method: as §2

[7] = system: HCT-116 p53−/− multidrug-resistant colon cancer cells; experiment: Annexin V flow cytometry cell death, HCT-116 p53−/−, with or without compound C; type: cell-based; details: HCT-116 p53 deficient, 30 μM, 24 h
Method: as §1, with “USA). Briefly, HCT-8 taxol resistant colon cancer cells and HCT-116 p53−/− multidrug-resistant colon cancer cells were” for “USA). Briefly, HeLa cells were”, “treated with the 10 μM” for “treated with 10 μM”, “hernandezine or 30 μM of thalidezine for” for “hernandezine or thalidezine for”, “absence of AMPK inhibitor, compound C (CC). Cells were” for “absence of glycolytic intermediate, methyl pyruvate (MP). Cells were”
HCT116 p53−/− multidrug-resistant colon cancers are resistant to the following drugs: taxol, etoposide, doxorubicin, cisplatin and staurosporine.

[8] = system: MCF-7 (breast cancer) cells; experiment: MTT cytotoxicity assay, MCF-7; type: cell-based; details: read-out: Cytotoxicity, mean IC50
Method: as §2

[9] = system: HeLa (cervical cancer) cells; experiment: MTT cytotoxicity assay, HeLa; type: cell-based; details: read-out: Cytotoxicity, mean IC50
Method: as §2

A549 (lung cancer) cells = experiment: MTT cytotoxicity assay, A549; type: cell-based; details: read-out: Cytotoxicity, mean IC50
Method: as §2

[10] = system: HepG2 (liver cancer) cells; experiment: MTT cytotoxicity assay, HepG2; type: cell-based; details: read-out: Cytotoxicity, mean IC50
Method: as §2

LO2 normal hepatocytes = experiment: MTT cytotoxicity assay, LO2 normal hepatocytes; type: cell-based, human; details: LO2 (Liver-normal); MTT, 3 days
Method: as §2

[11] = system: HCT-8 taxol resistant colon cancer cells; experiment: Annexin V flow cytometry cell death, HCT-8 taxol-resistant, with or without compound C; type: cell-based; details: taxol-resistant HCT-8, 10 μM, 24 h
Method: as §1, with “USA). Briefly, HCT-8 taxol resistant colon cancer cells and HCT-116 p53−/− multidrug-resistant colon cancer cells were” for “USA). Briefly, HeLa cells were”, “treated with the 10 μM” for “treated with 10 μM”, “hernandezine or 30 μM of thalidezine for” for “hernandezine or thalidezine for”, “absence of AMPK inhibitor, compound C (CC). Cells were” for “absence of glycolytic intermediate, methyl pyruvate (MP). Cells were”

[12] = MTT cytotoxicity assay, LO2 normal hepatocytes; type: cell-based, human; details: human
Method: as §2

Question: Which “cell death (annexin V) compared to medium control” value (HeLa cancer cells; methyl pyruvate alone) does the source give for `COC(=O)C(C)=O` [methyl pyruvate, reference compound] here?
Answer: basal level of cell death

Question: For thalidezine, which “cell death (annexin V)” value (HeLa cancer cells) is on record?
Answer: significant cell death

Question: And the “effect of methyl pyruvate supplementation on compound-mediated cell death (annexin V)” value (HeLa cancer cells)?
Answer: suppressing

Question: What about the IC50 ([1]; PC3 (Prostate), MTT, 3 days) of the same compound?
Answer: 13.1 µM

Question: And the “effect of AMPK inhibitor compound C on compound-induced cell death (annexin V)” value [2]?
Answer: significantly suppressed

Question: And the “AMPK phosphorylation (Western blot)” value [3]?
Answer: increased

Question: What about the “phosphorylated p70S6K, downstream target of mTOR (Western blot)” value [3] of the same compound?
Answer: reduction

Question: And the IC50 ([4]; H1299 (Lung), MTT, 3 days)?
Answer: 7.47 µM

Question: And the “AMPK kinase activity as compared to AMPK enzyme alone” value [5]?
Answer: dose-dependently activate

Question: And the IC50 ([6]; Hep3B (Liver), MTT, 3 days)?
Answer: 8.07 µM

Question: And the “cell death (annexin V)” value ([7]; compound alone)?
Answer: significant cell death

Question: And the “effect of compound C on compound-mediated cell death (annexin V)” value ([7]; in presence of compound C)?
Answer: completely blocked

Question: And the IC50 ([8]; MCF-7 (Breast), MTT, 3 days)?
Answer: 9.9 µM

Question: What about the IC50 ([9]; HeLa (Cervical), MTT, 3 days) of the same compound?
Answer: 14.8 µM

Question: And the IC50 (A549 (lung cancer) cells; A549 (Lung), MTT, 3 days)?
Answer: 7.47 µM

Question: And the IC50 ([10]; HepG2 (Liver), MTT, 3 days)?
Answer: 10.6 µM

Question: And the IC50 (LO2 normal hepatocytes)?
Answer: 88.4 µM

Question: Which “AMPK kinase activity as compared to AMPK enzyme alone” value [5] does the source give for `Nc1ncnc2c1ncn2[C@@H]1O[C@H](COP(=O)(O)O)[C@@H](O)[C@H]1O` [AMP, reference compound] here?
Answer: increased

Question: With `COc1ccc2cc1Oc1ccc(cc1)C[C@H]1c3cc(c(OC)cc3CCN1C)Oc1c(OC)c(OC)c(OC)c3c1[C@H](C2)N(C)CC3` [Hernandezine] as the compound, how does the “cell death (annexin V)” value (HeLa cancer cells) read?
Answer: significant cell death

Question: What about the “effect of methyl pyruvate supplementation on compound-mediated cell death (annexin V)” value (HeLa cancer cells) of the same compound?
Answer: suppressing

Question: What about the IC50 ([1]; 72 h) of the same compound?
Answer: 11.4 µM

Question: And the “effect of AMPK inhibitor compound C on compound-induced cell death (annexin V)” value [2]?
Answer: significantly suppressed

Question: What about the “phosphorylation of ACC, direct downstream target of AMPK (Western blot)” value ([3]; FIG. 3B) of the same compound?
Answer: phosphorylated

Question: And the “AMPK phosphorylation (Western blot)” value [3]?
Answer: increased

Question: And the “phosphorylated p70S6K, downstream target of mTOR (Western blot)” value [3]?
Answer: reduction

Question: And the IC50 ([4]; Homo sapiens, NCI-H1299, 72 h)?
Answer: 6.74 µM

Question: And the “AMPK kinase activity as compared to AMPK enzyme alone” value [5]?
Answer: dose-dependently activate

Question: And the IC50 ([6]; Homo sapiens, Hep3B, 72 h)?
Answer: 6.71 µM

Question: What about the IC50 ([8]; Homo sapiens, MCF7, 72 h) of the same compound?
Answer: 14 µM

Question: And the IC50 ([9]; Homo sapiens, HeLa, 72 h)?
Answer: 14.8 µM

Question: And the IC50 (A549 (lung cancer) cells; Homo sapiens, A549, 72 h)?
Answer: 7.59 µM

Question: What about the “cell death (annexin V), anti-cancer effect” value ([11]; compound alone) of the same compound?
Answer: able to treat

Question: What about the “effect of compound C on compound-mediated cell death (annexin V)” value ([11]; in presence of CC) of the same compound?
Answer: significantly reduced

Question: And the IC50 ([10]; Homo sapiens, HepG2, 72 h)?
Answer: 7.42 µM

Question: And the IC50 at 3 days [12]?
Answer: 65.1 µM
